#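 A five-concentration, 48-hour dose response in 96-well plates underlies each endpoint, interpolated linearly between surrounding concentrations. The concentration for full growth arrest is given as TGI.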
# Key:
# Experiment in all cases: growth of human tumour cells (NCI), 48 h
# SN12C renal = test system: SN12C renal
# TK-10 renal = test system: TK-10 renal
# SK-MEL-28 melanoma = test system: SK-MEL-28 melanoma
# SR leukemia = test system: SR leukemia
# M19-MEL melanoma = test system: M19-MEL melanoma
# XF 498 CNS = test system: XF 498 CNS
# SNB-78 CNS = test system: SNB-78 CNS
# A498 renal = test system: A498 renal
# MOLT-4 leukemia = test system: MOLT-4 leukemia
# DMS 114 small cell lung = test system: DMS 114 small cell lung
smiles,measurement,setting,value
CCCCN(CCCC)C(=O)C(=O)C(C(=O)C(=O)OC)c1nc2ccccc2o1 (stereo not given),TGI,SN12C renal,> 100 µM
same,TGI,TK-10 renal,> 100 µM
same,TGI,SK-MEL-28 melanoma,> 100 µM
same,TGI,SR leukemia,> 100 µM
same,TGI,M19-MEL melanoma,> 100 µM
same,TGI,XF 498 CNS,> 100 µM
same,TGI,SNB-78 CNS,> 100 µM
same,TGI,A498 renal,> 100 µM
same,TGI,MOLT-4 leukemia,> 100 µM
same,TGI,DMS 114 small cell lung,> 100 µM
Cn1cnc([N+](=O)[O-])c1Sc1nccn1-c1ccccc1,TGI,SN12C renal,> 100 µM
same,TGI,TK-10 renal,> 100 µM
same,TGI,SK-MEL-28 melanoma,> 100 µM
same,TGI,SR leukemia,62.3 µM
same,TGI,M19-MEL melanoma,> 100 µM
same,TGI,XF 498 CNS,> 100 µM
same,TGI,SNB-78 CNS,> 100 µM
same,TGI,A498 renal,> 100 µM
same,TGI,MOLT-4 leukemia,74.1 µM
same,TGI,DMS 114 small cell lung,91.2 µM
COC1OC(CO)C(O)C(NC(=O)N(C)N=O)C1O (stereo not given),TGI,SN12C renal,> 100 µM
same,TGI,TK-10 renal,> 100 µM
same,TGI,SK-MEL-28 melanoma,> 100 µM
same,TGI,SR leukemia,> 100 µM
same,TGI,M19-MEL melanoma,> 100 µM
same,TGI,XF 498 CNS,> 100 µM
same,TGI,SNB-78 CNS,> 100 µM
same,TGI,A498 renal,> 100 µM
same,TGI,MOLT-4 leukemia,> 100 µM
same,TGI,DMS 114 small cell lung,> 100 µM
CC1=CC=C2C(C)(C)CC[C@@H]3OC(=O)[C@H]1[C@]23C,TGI,SN12C renal,> 100 µM
same,TGI,TK-10 renal,> 100 µM
same,TGI,SK-MEL-28 melanoma,> 100 µM
same,TGI,SR leukemia,> 100 µM
same,TGI,M19-MEL melanoma,> 100 µM
same,TGI,XF 498 CNS,> 100 µM
same,TGI,SNB-78 CNS,> 100 µM
same,TGI,A498 renal,> 100 µM
same,TGI,MOLT-4 leukemia,> 100 µM
same,TGI,DMS 114 small cell lung,> 100 µM

# — PubChem BioAssay (NCI)
